Reference: PMC7729195, “Pharmacodynamic Functions of Synthetic Derivatives for Treatment of Methicillin-Resistant Staphylococcus aureus (MRSA) and Mycobacterium tuberculosis” (Frontiers in Microbiology, 2020)
Converted amounts (≈) assume the structure as drawn.

How the values were obtained:
[1] = system: M. tuberculosis H37Rv; assay: Checkerboard assay with rifampicin against M. tuberculosis; format: cell-based, Mycobacterium tuberculosis; conditions: for Drug–drug interactions / FIC: M. tuberculosis, compound with rifampicin; for MIC50: Mycobacterium tuberculosis, H37RV, read-out: Compound alone MIC50 for M. tuberculosis
[2] = system: M. tuberculosis; assay: Time-kill study against M. tuberculosis; format: cell-based, Mycobacterium tuberculosis
Protocol: Time-kill experiments were performed by culturing MRSA and M. tuberculosis in liquid medium in the presence of six synthesized sample concentrations in doubling dilutions ranging from 8 to 0.001 × MIC and 2 × MIC for both bacteria, respectively. Growth curves were initially generated to confirm that bacteria would reach a stable early- to mid-log phase after 2 and 48 h of pre-incubation in antimicrobial-free both medium, respectively. Samples were taken in different incubation times after drug exposure at 0, 2, 4, 6, 8, and 24 h for MRSA and 24, 48 h, and 4 and 6 days for M. tuberculosis and then plated onto agar plates for CFU determination. The experiments were carried out in duplicate and repeated three times.

[3] = system: A549, THP-1, HepG2 and HEK 293 cell lines; format: cell-based, human
Protocol: (§1) Human alveolar epithelial cells (A549), ([Giard et al., 1973]), Madin-Darby canine kidney epithelial cells (MDCK), ([Gaush et al., 1966]), human leukemia cells (THP-1) ([Tsuchiya et al., 1980]), human hepatocellular carcinoma cells (Hep-G2), ([Aden et al., 1979]), and human embryonic kidney cells 293 (HEK293) ([Graham et al., 1977]) were grown and differentiated in complete RPMI (Roswell Park Memorial Institute Medium) and DMEM (Dulbecco’s Modified Eagle’s medium) tissue culture media (RPMIc and DMEMc). To determine toxicity of the AIMS extract library, 2 × 10^5 of each cell type were added to a 96-well plate and left for 48 h at 37°C to adhere. Extract samples at a final concentration of 0.5 mg mL^–1 were added to the wells, then incubated for 7 days in a humidified 5% CO2 incubator at 37°C. Then resazurin (10 μL of 0.05% w/v) was added, and after 4 h, fluorescence measured as described previously. Cell viability was calculated as percentage fluorescence relative to untreated cells.

[4] = system: MRSA; assay: Time-kill study against MRSA; format: cell-based, Staphylococcus aureus; conditions: for Effect of sub-inhibitory combination with vancomycin on MRSA growth: sub-inhibitory combinations with vancomycin
[5] = system: P. aeruginosa PAO1; assay: Bacterial inhibition assay (resazurin), MIC against P. aeruginosa; format: cell-based, Pseudomonas aeruginosa; conditions: Pseudomonas aeruginosa, PAO1; synthetic compounds, 18 h incubation
[6] = system: A549; format: cell-based; conditions: human, 7 days
Protocol: as §1

[7] = system: HepG2; format: cell-based; conditions: human, 7 days
Protocol: as §1

[8] = system: HEK 293; format: cell-based; conditions: human, 7 days
Protocol: as §1

[9] = system: THP1; format: cell-based; conditions: human, 7 days
Protocol: as §1

[10] = system: M. tuberculosis H37Rv; assay: Bacterial inhibition assay (resazurin), MIC against M. tuberculosis; format: cell-based, Mycobacterium tuberculosis; parameters: MIC for TB. H37Rv: unit not given here; conditions: for MIC: Mycobacterium tuberculosis, H37RV, 168 h; for MIC for TB. H37Rv: Table 6 summary
[11] = system: MRSA; assay: Checkerboard assay with vancomycin against MRSA; format: cell-based, Staphylococcus aureus; conditions: for MIC50: Staphylococcus aureus, compound alone
[12] = system: E. coli EC958; assay: Bacterial inhibition assay (resazurin), MIC against E. coli; format: cell-based, Escherichia coli; conditions: Escherichia coli, EC958; synthetic compounds, 18 h incubation
[13] = system: resistant strains; assay: MIC against resistant strains; format: cell-based; conditions: read-out: MIC against resistant strains
[14] = system: MRSA; assay: Bacterial inhibition assay (resazurin), MIC against MRSA; format: cell-based, Staphylococcus aureus; parameters: MIC for MRSA: unit not given here; conditions: for MIC: Staphylococcus aureus, MRSA, synthetic compounds, 18 h incubation; for MIC for MRSA: Table 6 summary
[15] = system: MRSA; assay: Minimum bactericidal concentration (MBC) for MRSA; format: cell-based, Staphylococcus aureus; parameters: unit not given here; conditions: sub-culture on agar, 18 h
[16] = system: TB. H37Rv; assay: Minimum bactericidal concentration (MBC) for TB; format: cell-based, Mycobacterium tuberculosis; parameters: unit not given here; conditions: sub-culture on agar, 7 days
[17] = synthetic compounds, 7 days incubation

SMILES: CCCCCCCCN(CCCCCCCC)c1cccc(C)c1 [Compound 1a, N,N-Dioctyl-3-Methylaniline]
- Drug–drug interactions [1]: Indifference (0.25–4 indifferent or additive activity)
- FIC [1]: 1.1
- MIC50 [1]: 1.5 µM
- Effect on bacterial viability ([2]; compound treatment, day 6): significant reduction in bacterial viability
- Toxicity against THP1 and/or HEK 293 cells [3]: some toxicity
- MTC on all cell lines tested ([3]; human, 7 days): 50 to 100 µM
- Bactericidal character ([4]; conclusion of time-kill studies): strongly bactericidal and concentration dependent
- Effect of sub-inhibitory combination with vancomycin on MRSA growth [4]: substantially inhibited growth of MRSA
- MIC [5]: 6.2 ± 9 µM (≈ 2.06 µg/mL)
- Minimum toxicity concentration of drug (MTC) A549 [6]: >100 ± 4.1 µM
- Minimum toxicity concentration of drug (MTC) HepG2 [7]: >100 ± 3.0 µM
- Minimum toxicity concentration of drug (MTC) HEK 293 [8]: 50 ± 0.9 µM
- Minimum toxicity concentration of drug (MTC) THP1 [9]: 50 ± 2.0 µM
- MIC [10, 17]: 1.5 ± 3 µM (≈ 0.497 µg/mL)
- MIC for TB. H37Rv [10]: 1.5
- FIC ([11]; MRSA, compound with vancomycin): 0.45
- MIC50 ([11]; MRSA): 12.5 µM
- Activity against MRSA in combination with vancomycin ([11]; vancomycin plus compound): bactericidal activity
- MIC [12]: 12.5 ± 5 µM (≈ 4.14 µg/mL)
- MIC [13]: 6.7 to 20 µM (≈ 2.22 to 6.63 µg/mL)
- MIC [14]: 12.5 ± 1 µM (≈ 4.14 µg/mL)
- MIC for MRSA [14]: 12.5
- MBC for MRSA [15]: 25
- MBC for TB. H37Rv [16]: 25

SMILES: CCCCCCCCN(CCCCCCCC)CCCCCCCC [Compound 13, N,N,N-Trioctylammonium Chloride]
- Drug–drug interactions [1]: Indifference (0.25–4 indifferent or additive activity)
- FIC [1]: 1.1
- MIC50 [1]: 0.02 µM
- Killing effect with rifampicin ([2]; rifampicin plus compound, day 7 of treatment): comparable killing effects
- Toxicity against THP1 and/or HEK 293 cells [3]: some toxicity
- Effect of sub-inhibitory combination with vancomycin on MRSA growth [4]: substantially inhibited growth of MRSA
- Concentration at which killing was observed ([4]; time-kill, MRSA): > 100 μg mL^–1
- MIC [5]: 25 ± 4 µM
- Minimum toxicity concentration of drug (MTC) A549 [6]: 50 ± 1.4 µM
- Minimum toxicity concentration of drug (MTC) HepG2 [7]: >100 ± 5.2 µM
- Minimum toxicity concentration of drug (MTC) HEK 293 [8]: 6.5 ± 3.0 µM
- Minimum toxicity concentration of drug (MTC) THP1 [9]: 3.1 ± 0.7 µM
- MIC [10, 17]: 0.02 µM
- MIC for TB. H37Rv [10]: 0.02
- MIC M. tuberculosis [10, 17]: 0.02 ± 1.1 µM
- Drug–drug interactions ([11]; MRSA, compound with vancomycin): Indifference (0.25–4 indifferent or additive activity)
- MIC50 ([11]; MRSA): 12.5 µM
- MIC [12]: 25 ± 2 µM
- MIC [13]: ≥ 0.24 µM
- MIC [14]: 12.5 ± 2.7 µM
- MIC for MRSA [14]: 12.5
- MBC for MRSA [15]: 100
- MBC for TB. H37Rv [16]: 0.39
